Measured values reported in US20260210939A1, “MODIFIED OLFACTORY RECEPTORS” (GIVAUDAN SA, priority 2022, published 2026).
Marks after values point to notes of the source that are not given here.

Experiments:
Type in all cases: cell-based
[1] = biological target: T1, OR1N2 (Homo sapiens, UniProt Q8NGR9, T287M/V230G/W23R); test: CRE-luciferase assay, HEK293T cells expressing OR1N2 (wild-type / modified C-terminus)
T1 construct: Improved functional expression of modified OR-genes containing the truncated, optimized C-terminus; expressed in transfected cells; host or cells: HEK293T stably expressing human RTP1S(V227I) and RTP2(L220R)
T1 sequence (Q8NGR9 with tags, fused parts or gaps W23R/V230G/T287M): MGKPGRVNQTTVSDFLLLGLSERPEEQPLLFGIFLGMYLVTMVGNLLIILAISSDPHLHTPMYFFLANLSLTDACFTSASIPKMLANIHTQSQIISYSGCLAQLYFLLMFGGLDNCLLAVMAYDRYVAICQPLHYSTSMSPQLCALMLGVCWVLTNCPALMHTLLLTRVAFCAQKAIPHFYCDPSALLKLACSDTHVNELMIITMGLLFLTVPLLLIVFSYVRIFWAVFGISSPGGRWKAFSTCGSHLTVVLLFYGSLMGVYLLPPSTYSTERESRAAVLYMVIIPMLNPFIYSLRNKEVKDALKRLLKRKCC

[2] = biological target: T2, OR5A1 (Homo sapiens, UniProt Q8NGJ0, I300V); test: CRE-luciferase assay, HEK293T cells expressing OR5A1 (wild-type / modified C-terminus)
T2 construct: Improved functional expression of modified OR-genes containing the truncated, optimized C-terminus; expressed in transfected cells; host or cells: HEK293T stably expressing human RTP1S(V227I) and RTP2(L220R)
T2 sequence (Q8NGJ0 with tags, fused parts or gaps I300V): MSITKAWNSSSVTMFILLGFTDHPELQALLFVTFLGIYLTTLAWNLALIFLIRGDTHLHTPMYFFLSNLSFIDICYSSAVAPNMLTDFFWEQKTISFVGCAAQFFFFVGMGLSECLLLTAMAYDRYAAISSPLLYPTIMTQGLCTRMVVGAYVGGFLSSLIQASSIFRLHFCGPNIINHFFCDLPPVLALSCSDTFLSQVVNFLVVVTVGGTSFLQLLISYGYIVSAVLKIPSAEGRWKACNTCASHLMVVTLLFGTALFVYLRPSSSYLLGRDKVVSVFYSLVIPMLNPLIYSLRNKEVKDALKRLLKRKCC

[3] = biological target: T3, OR10H5 (Homo sapiens, UniProt Q8NGA6); test: CRE-luciferase assay, HEK293T cells expressing OR10H5 (wild-type / modified C-terminus)
T3 construct: Improved functional expression of modified OR-genes containing the truncated, optimized C-terminus; expressed in transfected cells; host or cells: HEK293T stably expressing human RTP1S(V227I) and RTP2(L220R)
T3 sequence (Q8NGA6 with tags, fused parts or gaps): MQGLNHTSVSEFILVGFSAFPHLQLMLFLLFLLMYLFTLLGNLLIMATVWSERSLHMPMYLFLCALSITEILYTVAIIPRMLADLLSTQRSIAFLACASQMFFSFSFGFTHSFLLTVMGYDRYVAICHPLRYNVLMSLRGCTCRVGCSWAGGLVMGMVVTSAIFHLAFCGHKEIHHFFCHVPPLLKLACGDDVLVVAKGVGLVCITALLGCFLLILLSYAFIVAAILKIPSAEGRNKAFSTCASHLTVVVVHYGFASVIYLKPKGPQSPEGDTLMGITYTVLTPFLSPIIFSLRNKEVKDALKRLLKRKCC
Text: All tested receptors of Table 1 gave improved functional expression when the wild-type C-terminal domain was replaced with SEQ ID NO: 86. This functional expression was further improved when SEQ ID NO:86 was replaced with SEQ ID NO: 221 as shown for OR7C1 in Table 8 and for OR5B12 in Table 9. This additive improvement was further tested with OR10H5 (Table 18) and OR7A17 (Table 19). […] The full DNA sequences encoding the modified receptors are SEQ ID NO: 684 for OR10H5 and SEQ ID NO: 611 for OR7A17.

[4] = biological target: T4, OR10A3 (Homo sapiens, UniProt P58181); test: Dose-response test of single lactones on OR10A3 (luciferase)
T4 construct: Class II OR library members with modified C-terminal domains; expressed in transfected cells
T4 sequence (P58181 with tags, fused parts or gaps): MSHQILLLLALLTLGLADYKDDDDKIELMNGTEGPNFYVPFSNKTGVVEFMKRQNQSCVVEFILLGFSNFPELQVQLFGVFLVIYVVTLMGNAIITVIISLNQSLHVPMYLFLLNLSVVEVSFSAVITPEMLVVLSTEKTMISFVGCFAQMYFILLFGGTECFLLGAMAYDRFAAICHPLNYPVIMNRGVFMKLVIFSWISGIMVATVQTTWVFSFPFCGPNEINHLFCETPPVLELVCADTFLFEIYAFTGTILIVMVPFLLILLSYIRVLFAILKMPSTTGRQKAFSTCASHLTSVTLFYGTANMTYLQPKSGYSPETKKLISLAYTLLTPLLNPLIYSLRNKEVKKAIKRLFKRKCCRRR
Description: (§1) In a subsequent de-convultion experiment, the single ingredients were tested in a dose-response test on all the identified OR. […] Thus, OR2AP1 and OR2J2 are particularly strongly activated by the long-chain dodecalactone gamma, while OR10A3 is very sensitive to several longer chain lactones. […] Among the five OR, OR10A3 is the most sensitive.

[5] = biological target: T5, OR2J2 (Homo sapiens, UniProt O76002, A146V/A218T/A302I/G300K/H297E/H74Y); test: Dose-response test of single lactones on OR2J2
T5 construct: expressed in transfected cells; transient transfection of pcDNA3.1(+) OR plasmid
T5 sequence (O76002 with tags, fused parts or gaps H74Y/A146V/A218T/H297E/G300K/A302I limits assumed): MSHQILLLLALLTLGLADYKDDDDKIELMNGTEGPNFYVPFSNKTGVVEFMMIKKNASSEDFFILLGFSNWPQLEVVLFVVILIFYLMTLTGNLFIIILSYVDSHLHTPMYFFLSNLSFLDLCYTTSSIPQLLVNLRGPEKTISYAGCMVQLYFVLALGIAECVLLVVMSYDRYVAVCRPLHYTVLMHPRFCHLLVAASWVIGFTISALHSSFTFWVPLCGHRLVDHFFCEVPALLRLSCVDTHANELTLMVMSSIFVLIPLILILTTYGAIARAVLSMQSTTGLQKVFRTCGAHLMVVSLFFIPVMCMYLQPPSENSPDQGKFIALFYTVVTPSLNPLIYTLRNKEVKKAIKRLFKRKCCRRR
Description: as §1

[6] = biological target: T6, OR10A6(A117V, V140G, L287P) (Homo sapiens, UniProt Q8NH74, A117V/L287P/V140G); test: Dose-response test of single lactones on OR10A6(A117V, V140G, L287P)
T6 construct: expressed in transfected cells; transient transfection of pcDNA3.1(+) OR plasmid
T6 sequence (Q8NH74 with tags, fused parts or gaps A117V/V140G/L287P limits assumed): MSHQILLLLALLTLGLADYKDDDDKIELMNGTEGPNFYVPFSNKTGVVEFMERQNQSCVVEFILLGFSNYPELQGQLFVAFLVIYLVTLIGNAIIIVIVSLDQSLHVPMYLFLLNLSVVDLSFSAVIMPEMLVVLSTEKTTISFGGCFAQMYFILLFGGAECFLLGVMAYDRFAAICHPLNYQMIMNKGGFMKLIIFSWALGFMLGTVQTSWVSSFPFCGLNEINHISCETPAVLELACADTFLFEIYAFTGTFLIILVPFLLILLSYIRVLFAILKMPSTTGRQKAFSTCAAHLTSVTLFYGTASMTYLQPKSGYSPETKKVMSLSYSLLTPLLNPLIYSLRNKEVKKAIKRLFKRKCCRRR
Description: as §1

[7] = biological target: T7, OR10J1(M51I, I92M) (Homo sapiens, UniProt P30954, I103M/M62I); test: Dose-response test of single lactones on OR10J1(M51I, I92M)
T7 construct: expressed in transfected cells; transient transfection of pcDNA3.1(+) OR plasmid
T7 sequence (P30954 with tags, fused parts or gaps M62I/I103M): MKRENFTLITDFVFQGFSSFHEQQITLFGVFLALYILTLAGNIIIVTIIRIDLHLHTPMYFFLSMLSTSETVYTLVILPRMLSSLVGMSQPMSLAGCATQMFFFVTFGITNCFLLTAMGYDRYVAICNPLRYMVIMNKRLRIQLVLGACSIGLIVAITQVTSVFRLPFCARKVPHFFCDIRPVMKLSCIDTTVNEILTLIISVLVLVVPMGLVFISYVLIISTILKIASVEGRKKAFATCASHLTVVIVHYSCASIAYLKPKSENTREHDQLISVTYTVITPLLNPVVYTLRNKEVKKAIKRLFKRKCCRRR
Description: as §1

O=C1CCCCCCCC=CCCCCCCO1 [Ambrettolide]
Comments on efficacy [1]: 1.5
Detection threshold; concentration for 2-fold induction ([1]; changed C-term. SEQ ID NO: 86): 0.26 µM
Fold-improvement potency ([1]; changed C-term. vs wild-type): 1.5
Fold-improvement threshold ([1]; changed C-term. vs wild-type): 5.2
Detection threshold; concentration for 2-fold induction ([1]; wild-type): 1.33 µM

CC(=O)/C=C/C1=C(C)CCCC1(C)C [Beta-ionone]
Comments on efficacy [2]: 4-fold lower
Detection threshold; concentration for 2-fold induction ([2]; changed C-term. SEQ ID NO: 86): 3.2 µM
Fold-improvement potency ([2]; changed C-term. vs wild-type): 1.8
Fold-improvement threshold ([2]; changed C-term. vs wild-type): 5.9
Detection threshold; concentration for 2-fold induction ([2]; wild-type): 19.1 µM
EC50 ([2]; wild-type): 5.5 µM

Cc1ccc2c(c1)OCC(=O)CO2 [Calone]
Comments on efficacy [3]: 3-fold lower
Detection threshold; concentration for 2-fold induction ([3]; changed C-term. SEQ ID NO: 86): 24.3 µM
Fold-improvement threshold ([3]; changed C-term. vs wild-type): 2.5
Fold-improvement potency ([3]; changed C-term. vs wild-type, higher EC50 due to much higher efficacy of optimized C-terminus): 0.7 *
Detection threshold; concentration for 2-fold induction ([3]; wild-type): 60.1 µM

CCCCCC1CCCC(=O)O1 (centres unmarked) [Decalactone delta]
EC10, concentration for 10-fold OR activation [4]: 2.10 μM
EC2 (concentration for 2-fold luciferase induction) [5]: 98.89 µM
EC2 (concentration for 2-fold luciferase induction) [6]: 5.31 µM
EC2 (concentration for 2-fold luciferase induction) [7]: 31.73 µM
